# Laboratory results as given in ChEMBL document CHEMBL1201862, “PubChem BioAssay data set” (2004).
#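 Briefly, cells in 96-well plates were exposed to five compound concentrations for 48 h, and endpoints were estimated by linear interpolation. Abbreviation: GI50, concentration required for 50% inhibition of growth.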 The source made the active and inactive calls. No stated cut-off is given here; in the data, active = GI50 up to about 1.1 µM and inactive = higher.
# Experiments:
# Assay in all cases: NCI tumour cell line growth inhibition, 48 h
# [1] = test system: 786-0
# [2] = test system: A498
# [3] = test system: A549
# [4] = test system: ACHN
# [5] = test system: BT-549
# [6] = test system: CAKI-1
# [7] = test system: CCRF-CEM
# [8] = test system: COLO 205
# [9] = test system: DU-145
# [10] = test system: EKVX
# [11] = test system: HCT-116
# [12] = test system: HCT-15
# [13] = test system: HL-60
# [14] = test system: HOP-62
# [15] = test system: HOP-92
# [16] = test system: HT-29
# [17] = test system: Hs-578T
# [18] = test system: IGROV-1
# [19] = test system: K562
# [20] = test system: KM12
# [21] = test system: LOX IMVI
# [22] = test system: M14
# [23] = test system: MCF7
# [24] = test system: MDA-MB-231
# [25] = test system: MDA-MB-435
# [26] = test system: MDA-N
# [27] = test system: MOLT-4
# [28] = test system: Malme-3M
# [29] = test system: NCI-H226
# [30] = test system: NCI-H23
# [31] = test system: NCI-H460
# [32] = test system: NCI-H522
# [33] = test system: NCI/ADR-RES
# [34] = test system: OVCAR-3
# [35] = test system: OVCAR-4
# [36] = test system: OVCAR-5
# [37] = test system: OVCAR-8
# [38] = test system: PC-3
# [39] = test system: RPMI-8226
# [40] = test system: RXF 393
# [41] = test system: SF-268
# [42] = test system: SF-295
# [43] = test system: SF-539
# [44] = test system: SK-MEL-28
# [45] = test system: SK-MEL-2
# [46] = test system: SK-MEL-5
# [47] = test system: SK-OV-3
# [48] = test system: SN12C
# [49] = test system: SNB-19
# [50] = test system: SNB-75
# [51] = test system: SR
# [52] = test system: SW-620
# [53] = test system: T47D
# [54] = test system: TK-10
# [55] = test system: U-251
# [56] = test system: UACC-257
# [57] = test system: UACC-62
structure (smiles),measurement,setting,value
O=C(O)c1cscc1Cc1cccs1,GI50,[1],> 100 µM (inactive)
same,GI50,[2],> 100 µM (inactive)
same,GI50,[3],> 100 µM (inactive)
same,GI50,[4],> 100 µM (inactive)
same,GI50,[5],> 100 µM (inactive)
same,GI50,[6],> 100 µM (inactive)
same,GI50,[7],> 100 µM (inactive)
same,GI50,[8],> 100 µM (inactive)
same,GI50,[9],> 100 µM (inactive)
same,GI50,[10],> 100 µM (inactive)
same,GI50,[11],> 100 µM (inactive)
same,GI50,[12],> 100 µM
same,GI50,[13],> 100 µM (inactive)
same,GI50,[14],> 100 µM (inactive)
same,GI50,[15],> 100 µM (inactive)
same,GI50,[16],> 100 µM (inactive)
same,GI50,[17],> 100 µM (inactive)
same,GI50,[18],> 100 µM (inactive)
same,GI50,[19],> 100 µM (inactive)
same,GI50,[20],> 100 µM (inactive)
same,GI50,[21],> 100 µM (inactive)
same,GI50,[22],> 100 µM (inactive)
same,GI50,[23],> 100 µM (inactive)
same,GI50,[24],> 100 µM (inactive)
same,GI50,[25],> 100 µM (inactive)
same,GI50,[26],> 100 µM (inactive)
same,GI50,[27],> 100 µM (inactive)
same,GI50,[28],> 100 µM (inactive)
same,GI50,[29],23.5 µM (inactive)
same,GI50,[30],> 100 µM (inactive)
same,GI50,[31],> 100 µM (inactive)
same,GI50,[32],> 100 µM (inactive)
same,GI50,[33],> 100 µM (inactive)
same,GI50,[34],> 100 µM (inactive)
same,GI50,[35],> 100 µM (inactive)
same,GI50,[36],> 100 µM (inactive)
same,GI50,[37],> 100 µM (inactive)
same,GI50,[38],> 100 µM (inactive)
same,GI50,[39],> 100 µM (inactive)
same,GI50,[40],> 100 µM (inactive)
same,GI50,[41],> 100 µM (inactive)
same,GI50,[42],> 100 µM (inactive)
same,GI50,[43],> 100 µM (inactive)
same,GI50,[44],> 100 µM (inactive)
same,GI50,[45],> 100 µM (inactive)
same,GI50,[46],> 100 µM (inactive)
same,GI50,[47],> 100 µM (inactive)
same,GI50,[48],> 100 µM (inactive)
same,GI50,[49],> 100 µM (inactive)
same,GI50,[50],57.8 µM (inactive)
same,GI50,[51],> 100 µM (inactive)
same,GI50,[52],> 100 µM (inactive)
same,GI50,[53],> 100 µM (inactive)
same,GI50,[54],> 100 µM (inactive)
same,GI50,[55],> 100 µM (inactive)
same,GI50,[56],> 100 µM (inactive)
same,GI50,[57],> 100 µM (inactive)
